# Data reported in US20220244279A1, “ASSAYS AND METHODS FOR SCREENING FOR CARDIOVASCULAR DISEASE USING LDL SUBCLASSES AND ENDOTHELIAL NITRIC OXIDE/PEROXYNITRITE BALANCE” (Ohio University, priority 2019, published 2022).
# Entries after “also recorded” stand apart in the source; their conditions may differ.
# Tested on: human umbilical vein endothelial cells (HUVECs)
# Experiment: Effect of eNOS pathway modulators on LDL-stimulated NO and ONOO− release
# Type: cell-based
# Conditions: for ONOO− production after pre-treatment vs control / NO production after pre-treatment vs control: 30 min pre-treatment, then LDL subclass A, B or I 800 μg/mL; for [NO]/[ONOO−] ratio with subclass I: pre-treatment, then subclass I 800 μg/mL; for effect on ratio of [NO]/[ONOO−]: modulators of L-arginine/NO pathway
# Experimental: Concurrent measurements of NO and ONOO^− were performed with electrochemical nanosensors (diameter: 200-300 nm). The designs of nanosensors are based on chemically modified carbon-fiber technology. Each of those sensors was made by depositing a sensing material on the tip of the carbon fiber. A conductive film of polymeric nickel (II) tetrakis (3-methoxy-4hydroxy-phenyl) porphyrinic was used for the NO sensor and a polymeric film of Mn (III)-paracyclophanyl-porphyrin was used for the ONOO^− sensor. NO and ONOO^− release from its basal level were measured by using amperometry with time (detection limit of 1 nmol/L and resolution time <50 ms). Each sensor was calibrated by using linear calibration curves from 50 nmol/L to 1000 nmol/L and/or standard addition methods before and after measurements with aliquots of NO or ONOO^− standard solutions, respectively.
# Endothelial cells were seeded to 24 well plates and cultured in complete medium until confluent monolayer formed. Then the study was carried out as follows:
# A control group was incubated in EBM only. After incubation, endothelial cells were stimulated with direct injection of subclasses A, B and I (800 μg/mL), and the release of NO/ONOO^− was measured with nanosensors.
Structure (SMILES),ONOO− production after pre-treatment vs control,[NO]/[ONOO−] ratio with subclass I,NO production after pre-treatment vs control,effect on ratio of [NO]/[ONOO−],"decrease of ONOO− concentration (VAS2870 10 μmol/L, LDL 800 μg/mL)"
"COC(=O)[C@@H](N)CCCNC(=N)N[N+](=O)[O-] [L-NAME, L-N^G-arginine methyl ester]",diminished,lower than one,–,–,–
N=C(N)NCCC[C@H](N)C(=O)O [L-arginine],diminished; also recorded: decrease ONOO^− generation,greater than one,increase NO production,favorably increasing the ratio of [NO]/[ONOO^−],–
c1ccc(Cn2nnc3c(Sc4nc5ccccc5o4)ncnc32)cc1 [VAS2870],diminished,–,–,–,20-27 % of control group
C[C@H](O)C(=O)C1=Nc2c(nc(N)[nH]c2=O)NC1 [sepiapterin],diminished; also recorded: lower level of ONOO^−,greater than one,higher level of NO,favorably increasing the ratio of [NO]/[ONOO^−],–
